Experimental data taken from US20210115145A1, “COMBINATION THERAPY WITH TARGETED TGF-B INHIBITION FOR TREATMENT OF ADVANCED NON-SMALL CELL LUNG CANCER” (Merck Patent GmbH, priority 2018, published 2021).

Legend:
[1] = system: advanced malignant melanoma or renal cell carcinoma; details: cited from earlier work
[2] = system: melanoma; details: Phase I; cited from earlier work
[3] = system: PD-L1 and TGFβ dependent signaling; test: Inhibition of PD-L1 and TGFβ dependent signaling in vitro; type: cell-based
[4] = system: PD-L1 and TGFβ; test: Two-step ELISA, simultaneous binding
[5] = system: advanced NSCLC; test: Clinical study in 2L NSCLC, q2w dosing: response per RECIST v1.1; type: in vivo, human
[6] = system: mouse tumor models; test: Antitumor activity in mouse tumor models; type: in vivo
[7] = system: EMT-6 xenografts; test: Mouse PK/Efficacy model from EMT-6 xenograft efficacy results; type: in vivo
Protocol: Experiments were also conducted to determine the efficacy of the anti-PD-L1/TGFβ Trap molecule in a tumor model. Efficacy results from EMT-6 xenografts were used to establish the PK/Efficacy model.
The model predictions are able to capture the tumor volume distributions. Conditional weighted residuals are normally distributed with a 0 mean and 1 variance without a trend. The PK/Efficacy model was then used to simulate tumor growth inhibition (TGI) using the human predicted concentration-time profiles at different doses.

[8] = system: scarring after eye surgery; details: Phase 3; cited from earlier work
[9] = molecular target: TGFβ1 (Homo sapiens, UniProt P01137); details: binding of TGFβ1; cited from earlier work
[10] = PD-L1 high (≥80%) pts, 500 mg q2w
[11] = PD-L1 high (≥80%) pts, 1200 mg q2w
[12] = PK/Efficacy model parameter estimate, EMT-6 xenograft mice

Chain of TGFβ1 (P01137 279-390 limits assumed, species assumed): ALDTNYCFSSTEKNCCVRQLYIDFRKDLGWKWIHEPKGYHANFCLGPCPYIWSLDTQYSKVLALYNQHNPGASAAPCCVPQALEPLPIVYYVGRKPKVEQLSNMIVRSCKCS

Question: Which clinical efficacy ([1]; Phase I/II, patients) does the source give for “GC1008: a human antibody specific for all isoforms of TGFβ” here?
Answer: only limited clinical efficacy

Question: And the safety ([1]; in vivo)?
Answer: safe and well tolerated

Question: With “fresolimumab: monoclonal antibody targeting TGFβ1, 2 and 3” as the molecule, how does the tumor response [2] read?
Answer: initial evidence of tumor response

Question: For “anti-PD-L1/TGFβ Trap: bi-functional fusion protein: anti-PD-L1 antibody heavy chains fused via glycine-serine linker to extracellular domain of human TGFβRII; SEQ ID NO: 3 and 1”, which “PD-L1 and TGFβ dependent signaling” value [3] is on record?
Answer: inhibited

Question: And the “simultaneous binding to PD-L1 and TGFβ” value ([4]; FIG. 2)?
Answer: simultaneously binds to both PD-L1 and TGFβ

Question: What about the “simultaneous binding to PD-L1 and TGFβ” value ([4]; FIG. 2, listed as protein of the present disclosure) of the same molecule?
Answer: simultaneously bound to both PD-L1 and TGFβ

Question: And the “ORR, %” value ([5]; All patients, 500 mg q2w)?
Answer: 20.0%

Question: What about the “ORR, n (responders/patients)” value ([5]; All patients, 500 mg q2w) of the same molecule?
Answer: 8/40

Question: What about the “ORR, %” value ([5]; All patients, 1200 mg q2w) of the same molecule?
Answer: 27.5%

Question: And the “ORR, n (responders/patients)” value ([5]; All patients, 1200 mg q2w)?
Answer: 11/40

Question: What about the “ORR, n (responders/patients)” value ([5]; All patients, Total) of the same molecule?
Answer: 19/80

Question: What about the “ORR, %” value ([5]; All patients, Total (both doses)) of the same molecule?
Answer: 23.8%

Question: And the “ORR, %” value ([5]; PD-L1+ (≥1%) pts, 500 mg q2w)?
Answer: 19.4%

Question: What about the “ORR, n (responders/patients)” value ([5]; PD-L1+ (≥1%) pts, 500 mg q2w) of the same molecule?
Answer: 6/31

Question: What about the “ORR, %” value ([5]; PD-L1+ (≥1%) pts, 1200 mg q2w) of the same molecule?
Answer: 40.7%

Question: And the “ORR, n (responders/patients)” value ([5]; PD-L1+ (≥1%) pts, 1200 mg q2w)?
Answer: 11/27

Question: And the “ORR, %” value ([5]; PD-L1+ (≥1%) pts, Total)?
Answer: 29.3%

Question: What about the “ORR, n (responders/patients)” value ([5]; PD-L1+ (≥1%) pts, Total) of the same molecule?
Answer: 17/58

Question: And the “ORR, %” value [5, 10]?
Answer: 33.3%

Question: And the “ORR, n (responders/patients)” value [5, 10]?
Answer: 2/6

Question: And the “ORR, %” value [5, 11]?
Answer: 85.7%

Question: What about the “ORR, n (responders/patients)” value [5, 11] of the same molecule?
Answer: 6/7

Question: And the “ORR, %” value ([5]; PD-L1 high (≥80%) pts, Total)?
Answer: 62.0%

Question: And the “ORR, n (responders/patients)” value ([5]; PD-L1 high (≥80%) pts, Total)?
Answer: 8/13

Question: What about the “partial responses (PR)” value ([5]; across both dose levels (500 mg and 1200 mg q2w), 80 patients) of the same molecule?
Answer: 18

Question: And the “complete response (CR)” value ([5]; at 1200 mg q2w)?
Answer: 1

Question: And the “antitumor activity and survival versus anti PD-L1 antibody avelumab or TGFβ Trap control alone” value ([6]; mouse tumor models, preclinical data)?
Answer: strongly enhances antitumor activity and prolongs survival

Question: What about the antitumor activity ([6]; variety of mouse models) of the same molecule?
Answer: potent antitumor activity

Question: What about the KC50 [7, 12] of the same molecule?
Answer: 55324.6 ng/mL

Question: What about the Kmax [7, 12] of the same molecule?
Answer: 2

Question: And the “KC50 (average plasma concentration for 50% of the maximal anti-tumor activity)” value ([7]; estimated, EMT-6 xenografts)?
Answer: 55.3 µg/mL

B1: Lerdelimumab: an antibody specific for TGFβ2 (antibody, chains of the INN, looked up, V domains shown)
VH: EVQLVESGGGVVQPGRSLRLSCAASGFTFSSYGMHWVRQAPGKGLEWVAVIWYDGSNKYYADSVKGRFTISRDNSKNTLYLQMDSLRAEDTAVYYCGRTLESSLWGQGTLVTVSS
VL: SSELTQDPAVSVALGQTVRITCQGDSLRSYYASWYQQKPGQAPVLVIYGKNNRPSGIPDRFSGSSSGNTASLTITGAQAEDEADYYCNSRDSSSTHRGVFGGGTKLTVL
Question: Which “safety and efficacy at improving scarring” value [8] does the source give for B1 here?
Answer: safe but ineffective

B2: recombinant soluble TGFβRII: recombinant soluble extracellular domain of TGFβRII (protein, UniProt P37173 23-166, looked up)
extracellular domain: TIPPHVQKSVNNDMIVTDNNGAVKFPQLCKFCDVRFSTCDNQKSCMSNCSITSICEKPQEVCVAVWRKNDENITLETVCHDPKLPYHDFILEDAASPKCIMKEKKKPGETFFMCSCSSDECNDNIIFSEEYNTSNPDLLLVIFQ
modifications: extracellular domain
Question: Which Kd [9] does the source give for B2 here?
Answer: 0.2 nM
